What all share (format): cell-based
One series concerns U251 cells. As to the kind of experiment: Actin stress fiber development in lamellipodia (FIG. 6). The settings on record: U251 cells grown 72 h, versus DMSO. From the text: Actin stress fibers are known to regulate the mesenchymal migrating cells by regulating the myosin-based contractility to achieve directional cell migration (Vallenius 2013). […] As these stress fibers are needed for other cellular functions required for directional movement, a lack of a visible stress fibers should inhibit cells treated with a representative compound (SD 29-14) from acquiring necessary traction generation to migrate. Actin stress fiber development has been reported to be needed to generate traction forces, establishment of the front-to-back polarity axis, retraction of the trailing edge, and extracellular matrix remodeling-development that collectively regulates the directional movement of migrating cell (Vallenius 2013). The cells were grown 72 h at conditions described for the cells imaged in FIG. 4 and were photographed under a Zeiss brand compound microscope at 40× magnification.

The nature of series [1]: Toxicity judged from DAPI treated cell nucleus in immunofluorescence experiments. Particulars: 100 μM. The method, then:
However, 100 μM might be a high concentration or dosing and may be higher than physiologically potent concentration.

In another series the test system is pY397-FAK. As to the kind of experiment: pY397-FAK expression, immunofluorescence (FIG. 15). Particulars: U251 cells, 96 h, 5 ng/ml TGF-beta. The source says:
As to FIGS. 14 and 15, in order to evaluate the effect of a representative compound (SD 29-14) as a drug for inducing functional inactivation of RACK1 on the FAK phosphorylation, the drug was used in testing with breast cancer cells (MCF7, FIG. 14) and with glioblastoma cancer cells (U251, FIG. 15). In this immunofluorescence experiment, the pY397-FAK expressing cells were stained with FITC tagged secondary antibody (green) and RACK1 was stained with TRITC tagged secondary antibody (red). Here 5 ng/ml TGFbeta was used to induce cell migration. […] As discussed above, without the pY397-FAK present, the connection between the ECM and cell interiors will be disrupted which will inhibit the cell's potential to migrate by initiating the cell's adhesion to the ECM.
As to FIGS. 14 and 15, and the methods, the immunofluorescence experiments are essentially same as described with reference to FIG. 9 with a slight modification in the duration of the drug treatment. The cancer cells (MCF7 or U251) were incubated with a drug (SD 29-14) or with DMSO (left panel) for 96 h in the presence of 5 ng/ml TGF-beta. After indicated incubation period, the cells were fixed and stained with antibody as described for FIG. 9 methods.

The target in series [2] is T1, RACK1A Y248 phosphorylation (Arabidopsis thaliana, UniProt O24456).
T1 construct: from tissue; host or cells: one-week old Arabidopsis seedlings (whole-seedling lysate)
T1 sequence (O24456 whole entry): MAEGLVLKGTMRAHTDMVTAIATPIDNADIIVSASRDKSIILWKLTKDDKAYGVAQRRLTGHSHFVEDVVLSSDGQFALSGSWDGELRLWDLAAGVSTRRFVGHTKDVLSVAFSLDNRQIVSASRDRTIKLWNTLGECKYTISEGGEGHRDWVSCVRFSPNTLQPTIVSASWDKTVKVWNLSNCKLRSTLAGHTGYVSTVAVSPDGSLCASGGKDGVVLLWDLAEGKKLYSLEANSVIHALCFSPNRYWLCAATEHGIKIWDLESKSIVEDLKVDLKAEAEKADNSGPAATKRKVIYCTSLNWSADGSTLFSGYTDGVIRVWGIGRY
The series is described as follows: Stress hormone (ABA) induced RACK1A Y248 phosphorylation in Arabidopsis seedlings, western blot (FIG. 1). The settings on record: 10 uM ABA, 12 hours. From the text:
The results of lab experiment establish the compounds identified by in silico screen to prevent RACK1 Y248 phosphorylation can inhibit RACK1 Y248 phosphorylation and confirm their utility in their application in RACK1 mediated cellular pathways. Y248 phosphorylation has previously been identified as a key event needed for RACK1 mediated scaffolding activities by regulating protein-protein interactions in plants. The corresponding residue in human RAKI is also a key requirement for scaffolding activities needed at the receptor level during the invasion and migration of cancer cells. […] The knock-out plant did maintain both the RACK1B protein and the RACK1C protein, but the antibody was raised to detect the RACK1A Y248 phosphorylation only.
As to FIG. 1, since RACK1 is a regulator of plant stress hormone Abscisic acid (ABA) (Guo et al., 2009), one-week old Arabidopsis seedlings were treated with 10 uM of ABA in the presence/absence of the inhibitor compounds for 12 hours in a growth chamber (overnight) at 22 C mostly in the night dark. Lysates isolated in buffer (Cell Signaling, MA) supplemented with plant protease inhibitor (Sigma-Aldrich), Protein Tyrosine phosphatase inhibitors (Santa Cruz Biotechnology, TX), and N-Ethylamaleimide (Sigma-Aldrich) at 25 mM to inhibit de-sumoylation. […]
(A western blot detects proteins with antibodies after separation by electrophoresis.)

A further series deals with MCF-7 cells. As to the kind of experiment: Filipodia/lamellipodia development of TGF-induced cells on Matrigel, Giemsa stain (FIG. 3, FIG. 5). The protocol:
About 1×10^5 Breast cancer cells (MCF-7) treated with DMSO or SD29-14 for 48 h were resuspended in serum free MEM media and were then plated on 1:6 diluted (with serum free media) matrigel (Basement membrane mimic) in the presence of Transforming Growth Factor (TGFbeta) which is a known inducer of EMT that lead to the migration-(Lamouille and Derynck (2009)), with DMSO or with SD29-14 and the cells were allowed to grow for 20 h on Matrigel. After incubation, media and matrigels were carefully removed and adherent cells were washed three times with 1×PBS; to visualize cells, cells were incubated with Giemsa Stain (Sigma-Aldrich) (1:20 with water) for 10 minutes, washed in water until no blue color rinsed out from the well images under a Zeiss Compound microscope.
Efficacy for inhibiting migration at a lower concentration of a representative compound was also investigated. Cancer cell lines were treated under conditions as used above for FIG. 2 and FIG. 3 but with both 10 μM and 100 μM SD29-14.
The experimental methods, except for the different cell line, are essentially same as stated above as to FIG. 4.

A further series deals with T2, RACK1 protein (Homo sapiens, UniProt P63244).
T2 construct: endogenous in cells; host or cells: MCF-7
As to the kind of experiment: RACK1 protein expression, western blot (FIG. 7). The settings on record: MCF-7 cells, 6 days, compound added on day 1 and day 4. The method, then: As to FIG. 7, MCF-7 cells were washed three times in PBS after growth on MEM media for 6 days. The indicated compounds were added on day 1 and day 4 of the treatment. The cells were lysed in the lysis buffer (Cell Signaling, MA) supplemented with protease inhibitor cocktail (Sigma-Aldrich), Protein Tyrosine phosphatase inhibitors (Santa Cruz Biotechnology, TX), and N-Ethylamaleimide (Sigma-Aldrich) at 25 mM to inhibit de-sumoylation. Twenty five micrograms of proteins were loaded on the BIORAD company's 4-12% precast polyacrylamide gel, transferred to a PVDF membrane and then blocked with 5% non-fat milk (Biorad) for one hour, washed and incubated overnight at 4 C with the RACK1 antibody (1:2500 dilution) purchased from the Santa Cruz Biotechnology. After overnight incubation, the membrane was washed 3× in PBST and then incubated with a horseradish peroxidase-coupled mouse secondary antibody for an hour at room temperature and the bands were detected with enhanced chemiluminescence (Pierce, Rockford, IL, USA), according to standard methods. […] This served as the loading control.

For `Nn1c(S)nnc1-c1cc(Cl)cc(Cl)c1` [SD 29-14], the “actin stress fiber development in lamellipodia” value in the series with U251 cells is listed as “no visible stress fiber like radiating structures were visible”. Besides, the “toxicity to cells (uniform DAPI treated cell nucleus, drug treated vs non-treated)” value in series [1] is given as “not exposed to a toxic amount”. Also, the “expression of pY397-FAK at the cell protrusions” value in the series on pY397-FAK is reported as “almost completely inhibited”. The “RACK1A Y248 phosphorylation with stress hormone present” value in series [2] is “prevents Y248 phosphorylation”. Further, in the series on MCF-7 cells (10 μM, 72 h grown (FIG. 5)), the “efficacy to inhibit filipodia and lamellipodia development” value was “maintained”. Moreover, in the series with MCF-7 cells (100 uM, TGF-beta on Matrigel, 48 h treated then 20 h on Matrigel), the “filipodia and lamellipodia development” value is “the development of both filipodia and lamellipodia was inhibited”. The RACK1 protein expression entry on RACK1 protein was “significant of RACK1 proteins”.

The values are drawn from patent publication US12629355B2, “Drug inhibitor against migration and invasion of cancer cells and methods of treating against metastasis of cancer cells” (HOWARD UNIVERSITY, priority 2019, dated 2026).
